The nature of data set [1]: Compound cytotoxicity, XTT-based colorimetric assay. As to conditions: human. In kind it is cell-based. As for the experimental part: Compound cytotoxicity and the corresponding CC50 values were determined using the same protocol as described in the antiviral assay except that uninfected cells were used. Cytotoxicity was assessed on day 4 in uninfected MT2 cells by using an XTT (2,3-bis[2-Methoxy-4-nitro-5-sulfophenyl]-2H-tetrazolium-5-carboxyanilide inner salt)-based colorimetric assay (Sigma-Aldrich, St Louis, Mo).
(Tetrazolium dyes change colour on reduction, which living cells bring about.)

Data set [2] relates to recombinant NL4-3 virus (nef section replaced with Renilla luciferase gene) in MT-2 cells. The data set is described as follows: HIV cell culture assay (antiviral activity, luciferase readout). The following applies: Renilla, NL43, MT-2 cells infected for 4-5 days with recombinant NL4-3 Renilla luciferase virus. In kind it is cell-based. The method in brief:
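Reporter virus is produced in 293T cells and its titer set in MT-2 cells by luciferase activity. MT-2 cells are then infected in the presence of serially diluted compound for 4-5 days. Luciferase is quantified and EC50 fitted to the median effect equation.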

[3] abbreviates: uninfected MT2 cells, day 4, XTT, read-out: CC50.

Read-outs that look alike come from different tables or passages of the source.

Consider 12 molecules from patent US12594276B2, “Inhibitors of human immunodeficiency virus replication” (ViiV Healthcare UK (No.5) Limited, priority 2024, dated 2026).

For the molecule `CS(=O)(=O)Nc1nn(CCN[C@@H]2CCCOC2)c2c(-n3c([C@H](Cc4cc(F)cc(F)c4)NC(=O)Cn4nc(C(F)F)c5c4C(F)(F)[C@@H]4C[C@H]54)nc4nc(C5CCC(F)(F)CC5)ccc4c3=O)ccc(Cl)c12` (atropisomer, axis not shown; (P)) [Example 40, N-[(1S)-1-[(3P)-3-[4-chloro-3-methanesulfonamido-1-(2-{[(3R)-oxan-3-yl]amino}ethyl)-1H-indazol-7-yl]-7-(4,4-difluorocyclohexyl)-4-oxo-3H,4H-pyrido[2,3-d]pyrimidin-2-yl]-2-(3,5-difluorophenyl)ethyl]-2-[(2S,4R)-9-(difluoromethyl)-5,5-difluoro-7,8-diazatricyclo[4.3.0.0^2,^4]nona-1(6),8-dien-7-yl]acetamide], the CC50 at 4 days in data set [1] (setting [3]) was > 50 nM. In addition, in data set [2], the EC50 was found to be 0.028 nM.
`CS(=O)(=O)Nc1nn(CCN2CC[C@](F)(C(F)(F)F)C2)c2c(-n3c([C@H](Cc4cc(F)cc(F)c4)NC(=O)Cn4nc(C(F)F)c5c4C(F)(F)[C@@H]4C[C@H]54)nc4nc(C5CCC(F)(F)CC5)ccc4c3=O)ccc(Cl)c12` (atropisomer, axis not shown; (P)) [Example 41]: the CC50 at 4 days in data set [1] (setting [3]) is > 50 nM. In addition, in data set [2], the concentration for a half-maximal effect (EC50) is 0.015 nM.
On to `CS(=O)(=O)Nc1nn(CCN2CC[C@@](F)(C(F)(F)F)C2)c2c(-n3c([C@H](Cc4cc(F)cc(F)c4)NC(=O)Cn4nc(C(F)F)c5c4C(F)(F)[C@@H]4C[C@H]54)nc4nc(C5CCC(F)(F)CC5)ccc4c3=O)ccc(Cl)c12` (atropisomer, axis not shown; (P)) [Example 42, N-[(1S)-1-[(3P)-3-(4-chloro-1-{2-[(3S)-3-fluoro-3-(trifluoromethyl)pyrrolidin-1-yl]ethyl}-3-methanesulfonamido-1H-indazol-7-yl)-7-(4,4-difluorocyclohexyl)-4-oxo-3H,4H-pyrido[2,3-d]pyrimidin-2-yl]-2-(3,5-difluorophenyl)ethyl]-2-[(2S,4R)-9-(difluoromethyl)-5,5-difluoro-7,8-diazatricyclo[4.3.0.0^2,^4]nona-1(6),8-dien-7-yl]acetamide], for which, in data set [1] (setting [3]), the CC50 at 4 days is > 50 nM. The EC50 in data set [2] worked out at 0.021 nM.
Consider `CS(=O)(=O)Nc1nn(CCN2[C@@H]3CC[C@H]2CC(F)(F)C3)c2c(-n3c([C@H](Cc4cc(F)cc(F)c4)NC(=O)Cn4nc(C(F)F)c5c4C(F)(F)[C@@H]4C[C@H]54)nc4nc(C5CCC(F)(F)CC5)ccc4c3=O)ccc(Cl)c12` (atropisomer, axis not shown; (P)) [Example 43, N-[(1S)-1-[(3P)-3-(4-chloro-1-{2-[(1R,5S)-3,3-difluoro-8-azabicyclo[3.2.1]octan-8-yl]ethyl}-3-methanesulfonamido-1H-indazol-7-yl)-7-(4,4-difluorocyclohexyl)-4-oxo-3H,4H-pyrido[2,3-d]pyrimidin-2-yl]-2-(3,5-difluorophenyl)ethyl]-2-[(2S,4R)-9-(difluoromethyl)-5,5-difluoro-7,8-diazatricyclo[4.3.0.0^2,^4]nona-1(6),8-dien-7-yl]acetamide], for which the cytotoxic concentration (CC50) at 4 days in data set [1] was > 50 nM. Also, the EC50 in data set [2] worked out at 0.021 nM.
As to `CS(=O)(=O)Nc1nn(CCN2CC(F)(F)C2)c2c(-n3c([C@H](Cc4cc(F)cc(F)c4)NC(=O)Cn4nc(C(F)F)c5c4C(F)(F)[C@@H]4C[C@H]54)nc4nc(C5CCC(F)(F)CC5)ccc4c3=O)ccc(Cl)c12` (atropisomer, axis not shown; (P)) [Example 48, N-[(1S)-1-[(3P)-3-{4-chloro-1-[2-(3,3-difluoroazetidin-1-yl)ethyl]-3-methanesulfonamido-1H-indazol-7-yl}-7-(4,4-difluorocyclohexyl)-4-oxo-3H,4H-pyrido[2,3-d]pyrimidin-2-yl]-2-(3,5-difluorophenyl)ethyl]-2-[(2S,4R)-9-(difluoromethyl)-5,5-difluoro-7,8-diazatricyclo[4.3.0.0^2,^4]nona-1(6),8-dien-7-yl]acetamide], in data set [1] (setting [3]), the CC50 at 4 days was > 50 nM. For the same molecule, in data set [2], the EC50 is 0.018 nM.
As for `Cc1cc(C2CCC(F)(F)CC2)nc2nc([C@H](Cc3cc(F)cc(F)c3)NC(=O)Cn3nc(C(F)F)c4c3C(F)(F)[C@@H]3C[C@H]43)n(-c3ccc(Cl)c4c(NS(C)(=O)=O)nn(CCOC(C)C)c34)c(=O)c12` (atropisomer, axis not shown; (P)) [Example 59, N-[(1S)-1-[(3P)-3-{4-chloro-3-methanesulfonamido-1-[2-(propan-2-yloxy)ethyl]-1H-indazol-7-yl}-7-(4,4-difluorocyclohexyl)-5-methyl-4-oxo-3H,4H-pyrido[2,3-d]pyrimidin-2-yl]-2-(3,5-difluorophenyl)ethyl]-2-[(2S,4R)-9-(difluoromethyl)-5,5-difluoro-7,8-diazatricyclo[4.3.0.0^2,^4]nona-1(6),8-dien-7-yl]acetamide], the cytotoxic concentration (CC50) at 4 days in data set [1] (setting [3]) is > 50 nM. In data set [2], the EC50 is 0.011 nM.
Regarding `CCOCCn1nc(NS(C)(=O)=O)c2c(Cl)ccc(-n3c([C@H](Cc4cc(F)cc(F)c4)NC(=O)Cn4nc(C(F)F)c5c4C(F)(F)[C@@H]4C[C@H]54)nc4nc(C5CCC(F)(F)CC5)cc(C)c4c3=O)c21` (atropisomer, axis not shown; (P)) [Example 60, N-[(1S)-1-[(3P)-3-[4-chloro-1-(2-ethoxyethyl)-3-methanesulfonamido-1H-indazol-7-yl]-7-(4,4-difluorocyclohexyl)-5-methyl-4-oxo-3H,4H-pyrido[2,3-d]pyrimidin-2-yl]-2-(3,5-difluorophenyl)ethyl]-2-[(2S,4R)-9-(difluoromethyl)-5,5-difluoro-7,8-diazatricyclo[4.3.0.0^2,^4]nona-1(6),8-dien-7-yl]acetamide], in data set [1] (setting [3]), the CC50 at 4 days was > 50 nM. The EC50 in data set [2] was 0.012 nM.
Take `Cc1cc(C2CCC(F)(F)CC2)nc2nc([C@H](Cc3cc(F)cc(F)c3)NC(=O)Cn3nc(C(F)F)c4c3C(F)(F)[C@@H]3C[C@H]43)n(-c3ccc(Cl)c4c(NS(C)(=O)=O)nn(CCOCC(F)(F)F)c34)c(=O)c12` (atropisomer, axis not shown; (P)) [Example 72, N-[(1S)-1-[(3P)-3-{4-chloro-3-methanesulfonamido-1-[2-(2,2,2-trifluoroethoxy)ethyl]-1H-indazol-7-yl}-7-(4,4-difluorocyclohexyl)-5-methyl-4-oxo-3H,4H-pyrido[2,3-d]pyrimidin-2-yl]-2-(3,5-difluorophenyl)ethyl]-2-[(2S,4R)-9-(difluoromethyl)-5,5-difluoro-7,8-diazatricyclo[4.3.0.0^2,^4]nona-1(6),8-dien-7-yl]acetamide]: the CC50 at 4 days in data set [1] (setting [3]) was > 50 nM. In addition, the EC50 in data set [2] was 0.029 nM.
In the same order, the values of `CO[C@H](C)Cn1nc(NS(C)(=O)=O)c2c(Cl)ccc(-n3c([C@H](Cc4cc(F)cc(F)c4)NC(=O)Cn4nc(C(F)F)c5c4C(F)(F)[C@@H]4C[C@H]54)nc4nc(C5CCC(F)(F)CC5)cc(C)c4c3=O)c21` (atropisomer, axis not shown; (P)) [Example 77, N-[(1S)-1-[(3P)-3-{4-chloro-3-methanesulfonamido-1-[(2R)-2-methoxypropyl]-1H-indazol-7-yl}-7-(4,4-difluorocyclohexyl)-5-methyl-4-oxo-3H,4H-pyrido[2,3-d]pyrimidin-2-yl]-2-(3,5-difluorophenyl)ethyl]-2-[(2S,4R)-9-(difluoromethyl)-5,5-difluoro-7,8-diazatricyclo[4.3.0.0^2,^4]nona-1(6),8-dien-7-yl]acetamide] are > 50 nM and 0.018 nM.
In the case of `CO[C@@H](C)Cn1nc(NS(C)(=O)=O)c2c(Cl)ccc(-n3c([C@H](Cc4cc(F)cc(F)c4)NC(=O)Cn4nc(C(F)F)c5c4C(F)(F)[C@@H]4C[C@H]54)nc4nc(C5CCC(F)(F)CC5)cc(C)c4c3=O)c21` (atropisomer, axis not shown; (P)) [Example 78, N-[(1S)-1-[(3P)-3-{4-chloro-3-methanesulfonamido-1-[(2S)-2-methoxypropyl]-1H-indazol-7-yl}-7-(4,4-difluorocyclohexyl)-5-methyl-4-oxo-3H,4H-pyrido[2,3-d]pyrimidin-2-yl]-2-(3,5-difluorophenyl)ethyl]-2-[(2S,4R)-9-(difluoromethyl)-5,5-difluoro-7,8-diazatricyclo[4.3.0.0^2,^4]nona-1(6),8-dien-7-yl]acetamide], in data set [1] (setting [3]), the CC50 at 4 days was > 50 nM. In addition, in data set [2], the EC50 is 0.016 nM.
`COCCn1nc(NS(C)(=O)=O)c2c(Cl)ccc(-n3c([C@H](Cc4cc(F)cc(F)c4)NC(=O)Cn4nc(C(F)F)c5c4C(F)(F)[C@@H]4C[C@H]54)nc4nc(C5CCC(F)(F)CC5)cc(C)c4c3=O)c21` (atropisomer, axis not shown; (P)) [Example 84, N-[(1S)-1-[(3P)-3-[4-chloro-3-methanesulfonamido-1-(2-methoxyethyl)-1H-indazol-7-yl]-7-(4,4-difluorocyclohexyl)-5-methyl-4-oxo-3H,4H-pyrido[2,3-d]pyrimidin-2-yl]-2-(3,5-difluorophenyl)ethyl]-2-[(2S,4R)-9-(difluoromethyl)-5,5-difluoro-7,8-diazatricyclo[4.3.0.0^2,^4]nona-1(6),8-dien-7-yl]acetamide]: the CC50 at 4 days in data set [1] (setting [3]) was > 50 nM. The EC50 in data set [2] was determined as 0.016 nM.
In the case of `COCCCn1nc(NS(C)(=O)=O)c2c(Cl)ccc(-n3c([C@H](Cc4cc(F)cc(F)c4)NC(=O)Cn4nc(C(F)F)c5c4C[C@@H]4C[C@H]54)nc4nc(C5CCC(F)(F)CC5)cc(C)c4c3=O)c21` (atropisomer, axis not shown; (P)) [Example 86, N-[(1S)-1-[(3P)-3-[4-chloro-3-methanesulfonamido-1-(3-methoxypropyl)-1H-indazol-7-yl]-7-(4,4-difluorocyclohexyl)-5-methyl-4-oxo-3H,4H-pyrido[2,3-d]pyrimidin-2-yl]-2-(3,5-difluorophenyl)ethyl]-2-[(2S,4S)-9-(difluoromethyl)-7,8-diazatricyclo[4.3.0.0^2,^4]nona-1(6),8-dien-7-yl]acetamide], in data set [1] (setting [3]), the CC50 at 4 days was > 50 nM. For the same molecule, the concentration for a half-maximal effect (EC50) in data set [2] was 0.011 nM.

Broadly, the CC50 is the concentration that lowers cell viability or growth by half. Broadly, the EC50 is the concentration giving half of the maximal effect.
